# Data published in US20200345689A1, “METHODS AND CO[…] RRx-001 FOR RADIOPROTECTION” (EpicentRx, Inc., priority 2018, published 2020).
# Legend:
# SOD-1 = experiment: Western blot of SOD-1 in U937 macrophages; assay type: cell-based, human; settings: 3 mM RRx-001 for 16 hours, sham and irradiated groups
# Description: Expression of ARE proteins was assayed in hMSC, macrophages, and monocytes following in vitro irradiation of the cells, which were pretreated with RRx-001 or vehicle. Protein expression was assayed by Western blotting and protein quantification.
# hMSC were treated for 16 hours with […] RRx-001 or the vehicle control (0.05% DMSO), irradiated at 10 Gy or sham-irradiated and the protein collected 8 or 24 hours post-sham or irradiation. Human monocytic leukemic THP-1 and U937 cells were differentiated into macrophages with 50 nM Phorbol 12-myristate 13-acetate (PMA) for 24 hours before treatment. Differentiated and non-differentiated cells were treated with […] RRx-001 or 0.05% DMSO (vehicle control) for 16 hours prior to radiation. The cells were irradiated at 5 Gy or sham-irradiated and collected 4-8 hours later for both analysis. For each experiment, duplicates of each sample were run.
# CD2F1 male mice = experiment: Complete blood count with differential and reticulocytes after sublethal TBI or sham irradiation; assay type: in vivo
# Description: To determine the pathophysiological effects of RRx-001 on hematopoietic protection in mice, CD2F1 male mice were treated with 10 mg/kg RRx-001 or the vehicle control 24 hours prior to a sublethal dose of TBI (7 Gy at 0.6 Gy/min using High-level Cobalt-60) or sham irradiation (day 0) according to the table below.
# CD2F1 male mice (n=3/group) were divided into 4 experimental groups: 1) irradiation+vehicle, 2) irradiation+RRx-001, 3) sham-irradiation+vehicle and 4) sham-irradiation+RRx-001. Either 10 mg/kg RRx-001 or the vehicle control were IP injected 24 hours prior to either irradiation or sham-irradiation (day 0). On days 2, 7, 14, 21, and 28 post-irradiation (day 0) mice were humanely euthanized. Blood, bone marrow, and sternebrae were then collected. This experiment was performed in duplicate for a total of n=6 mice/group/time point.
# Post-irradiation whole blood was obtained by terminal cardiocentesis. Blood samples were immediately transferred into EDTA tubes (Sarstedt Inc., Newton, N.C.) and gently rotated until the time of analysis. The tubes were analyzed for a complete blood count with differential and reticulocytes using the ADVIA 2120 (Siemens Medical Solutions Diagnostics, Dublin, Ireland), and Microsoft software version 5.9 (Microsoft Corp., Redmond, Wash.) to generate the data.
# Blood parameters were compared between treatment groups using an analysis of variance (ANOVA). The Wilcoxon test was also used for sensitivity and to potentially address data departures from normality. A longitudinal mixed model repeated measures was also implemented to provide a more complete data analysis of the sham-irradiated treatment groups' difference in overall time profile mean based on the blood parameters. Bone marrow data (megakaryocytes and grade) statistical analysis was carried out using a parametric test consisting of a general linear model analysis of variance (ANOVA with factors consisting of treatment group and pathologist) and the Kruskal-Wallis nonparametric test. The statistical data analysis was carried out using R software (Version 3.4.3, 2016) and the graphs made using GraphPad Prism version 7.03 (GraphPad Software, La Jolla, Calif.).
# [1] = tested on: male Syrian Golden Hamsters; experiment: Oral mucositis induced by acute radiation in hamsters; assay type: in vivo
# Description: In this example, the ability of RRx-001 to treat oral mucositis induced by acute radiation was assess in hamsters.
# Fifty-six (56) male Syrian Golden Hamsters were used in the study. Mucositis was induced by administering an acute radiation dose of 40 Gy directed to the left buccal cheek pouch on Day 0 at a rate of 2-2.5 Gy/min. Mucositis was evaluated clinically starting on Day 6 and continuing on alternate days until Day 28. Hamsters reaching a mucositis severity score of 4 or higher received buprenorphine (0.5 mg/kg) SC twice a day for 48 hours or until score dropped below 4.
# Dosing was scheduled as follows: for animals in Groups 1-4, animals were dosed with RRx-001 (1, 3, or 10 mg/kg) or vehicle (1:2 DMA:PEG400 vol:vol ratio) once a day (QD) on Days −4, −1, 1, 4, 7, 11, 14, 18, 21, and 25 via intraperitoneal (IP) administration; animals in Groups 5-7 were dosed QD with RRx-001 (1, 3, or 10 mg/kg) on Days −4, −1, 1, 8, 15, and 22.
# The significance of differences observed between the control and treatment group was evaluated by comparing the days with mucositis scores≥3 and <3 between groups using chi-square analysis. […] The percentage of animal days with a score of ≥3 in the Vehicle Group was 57.29%. […] There were numerous days where animals dosed with RRx-001 had percent ulceration days that were lower (which can be interpreted as ameliorative of disease severity) in comparison to vehicle-dosed animals.
# An analysis of the severity of mucositis was performed using the Mann-Whitney rank sum analysis to compare the visual mucositis scores for the treatment group to the Vehicle control group on each day of evaluation. In this analysis, 2 days of significant reduction in the mucositis score are generally required before it is regarded as meaningful.
# [2] = 7 Gy TBI, decrease below sham controls on days 7 and 14
# [3] = days 2 and 21 post-irradiation (7 Gy TBI)
compound,measurement,setting,value
"O=C(CBr)N1CC([N+](=O)[O-])([N+](=O)[O-])C1 [RRx-001, 2-bromo-1-(3,3-dinitroazetidin-1-yl)ethan-1-one]",SOD-1 expression,SOD-1,no change
same,% HCT compared to the irradiated control,"CD2F1 male mice; 7 Gy TBI, day 14",significantly increased levels
same,ALC counts compared to the controls,"CD2F1 male mice; 7 Gy TBI, day 14",significantly increased
same,WBC counts compared to the controls,"CD2F1 male mice; 7 Gy TBI, day 14",significantly increased
same,% RETIC compared to control mice,"CD2F1 male mice; 7 Gy TBI, day 14, returned to baseline levels",significantly increased
same,% RETIC compared to the vehicle controls,"CD2F1 male mice; 7 Gy TBI, day 28",significantly increased
same,ANC compared to the control,"CD2F1 male mice; 7 Gy TBI, days 7 and 14",significantly increased
same,PLT compared to the control,"CD2F1 male mice; 7 Gy TBI, days 7 and 14",significantly increased
same,"hemoglobin, irradiated RRx-001 vs irradiated vehicle",CD2F1 male mice; [2],not significantly different
same,"red blood cells, irradiated RRx-001 vs irradiated vehicle",CD2F1 male mice; [2],not significantly different
same,absolute lymphocyte count (ALC) vs vehicle control,CD2F1 male mice; [3],No significant difference
same,absolute neutrophil count (ANC) vs vehicle control,CD2F1 male mice; [3],No significant difference
same,percent hematocrit (% HCT) vs vehicle control,CD2F1 male mice; [3],No significant difference
same,percent reticulocytes (% RETIC) vs vehicle control,CD2F1 male mice; [3],No significant difference
same,platelets (PLT) vs vehicle control,CD2F1 male mice; [3],No significant difference
same,white blood cells (WBC) vs vehicle control,CD2F1 male mice; [3],No significant difference
same,"platelets, overall mean over time (standard error)","CD2F1 male mice; sham-irradiated, 10 mg/kg IP, longitudinal mixed model repeated measures",1067.73 (32.26)
same,difference in the overall mean of platelets over time vs vehicle,"CD2F1 male mice; sham-irradiated, least-square means, p=0.01",statistically significant difference in the least-square means in favor of RRx-001-treatment
same,percent ulceration (mucositis score ≥3),"[1]; 10 mg/kg, Groups 2 and 5, only dosed on Days −4, −1, and 1",best response in decreasing percent ulceration
same,"percent days of ulceration, twice weekly dosing vs dosing one time per week",[1]; 3 and 1 mg/kg concentrations (Groups 4 vs. Group 7),more beneficial effects on percent days of ulceration
same,mean daily mucositis scores,"[1]; Group 2: 10 mg/kg IP, dosing terminated after Day 1, 40 Gy to left buccal cheek pouch",modest but significant enhancement of disease healing
same,percentage of days with a mucositis score of ≥3 in comparison to the Vehicle Group,"[1]; Group 2: 10 mg/kg on Days −4, −1, 1, chi-square, p<0.01",statistically lower
same,mean daily mucositis scores,"[1]; all other treatment groups (Groups 3-7: 1, 3 or 10 mg/kg IP)","tracked fairly close to each other, and with Vehicle dosed controls"
same,mucositis scores compared to the Vehicle control group,[1]; animals dosed with 1 mg/kg,multiple days of significant improvement
same,mucositis scores compared to the Vehicle control group,[1]; animals dosed with 10 mg/kg,multiple days of significant improvement
